These results are taken from paper doi:10.1101/2025.07.06.663376v1, “Fubylation as a Druggable Ubiquitin-Like Conjugation System Controlling Hippo Pathway Activity” (biorxiv, 2025).

Common to all, as to format: binding
One test has as its target T1, FAU (Homo sapiens, UniProt P62861).
T1 construct: uncleaved FAU precursor (FUBI fused to ribosomal protein S30); GST-tagged (pGEX-6P-1), E. coli BL21, glutathione agarose
The test can be described thus: photo-crosslinking, rhodamine-azide click, in-gel fluorescence.

Test [1] concerns the target T2, FUBI (Homo sapiens, UniProt P62861).
T2 construct: gene FAU; mature FUBI (74 residues, ends VAGRMLGG) cut from the FAU precursor (FUBI-eS30 fusion); E. coli BL21; GST-FUBI (pGEX-6P-1) for photolabelling; untagged FUBI (6-HIS-SUMO removed by ULP1) for HDX-MS; printed peptides 32-42 EGIAPEDQVVL and 67-74 VAGRMLGG
Described as above. The text has this:
photo-crosslinking, rhodamine-azide click, in-gel fluorescence on FUBI | recombinant preparations of FUBI, but not S30, were dose-dependently labeled by mCMN927

The target of test [2] is T2, FUBI. The test can be described thus: HDX-MS (also competition of probe labelling). The settings on record: untagged FUBI 5 µM, 600 µM compound, 20 mM Tris-HCl, 100 mM NaCl, pH 8.0, 25 °C; non-covalent; residues 32-42 and 67-74.

Consider `C#CCCC1(CCN(C)CC2CCN(c3nc(-c4ccncc4)nc4ccccc34)CC2)N=N1` [mCMN927, {2-[3-(but-3-yn-1-yl)diazirin-3-yl]ethyl}(methyl)({1-[2-(pyridin-4-yl)quinazolin-4-yl]piperidin-4-yl}methyl)amine], for which the values for the half-maximal effective concentration (EC50) at FAU and on FUBI [1] were 4.3 µM and 3.5 µM, respectively.

For the compound `CN(C)CC1CCN(c2nc(-c3ccncc3)nc3ccccc23)CC1` [sCMF231], on FUBI [2], the “HDX-MS (also competition of probe labelling)” value is listed as “sCMF231 treatment reduced deuterium exchange within two key regions”.
